Test results from ChEMBL document CHEMBL1201862, “PubChem BioAssay data set” (2004).
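Exposure lasted 48 hours, with cells grown in 96-well plates and compounds tested at five concentrations. GI50 = concentration required for 50% inhibition of growth.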 Activity calls are given as the source filed them. Rule as the data show it: active = GI50 up to about 1.1 µM and inactive = higher.

Assays:
Assay in all cases: growth of human tumour cells (NCI), 48 h
NCI-H23 = tested on: NCI-H23
NCI-H522 = tested on: NCI-H522
ACHN = tested on: ACHN
786-0 = tested on: 786-0
SK-MEL-28 = tested on: SK-MEL-28
RPMI-8226 = tested on: RPMI-8226
HL-60 = tested on: HL-60
MOLT-4 = tested on: MOLT-4
IGROV-1 = tested on: IGROV-1
NCI-H460 = tested on: NCI-H460
SNB-19 = tested on: SNB-19
SF-295 = tested on: SF-295
SR = tested on: SR
MDA-MB-231 = tested on: MDA-MB-231
PC-3 = tested on: PC-3
RXF 393 = tested on: RXF 393
K562 = tested on: K562
MCF7 = tested on: MCF7
SF-539 = tested on: SF-539
HCT-15 = tested on: HCT-15
SW-620 = tested on: SW-620
HOP-62 = tested on: HOP-62
UACC-257 = tested on: UACC-257
Hs-578T = tested on: Hs-578T
T47D = tested on: T47D
COLO 205 = tested on: COLO 205
OVCAR-3 = tested on: OVCAR-3
MDA-N = tested on: MDA-N
A549 = tested on: A549
SK-MEL-2 = tested on: SK-MEL-2
KM12 = tested on: KM12
MDA-MB-435 = tested on: MDA-MB-435
SK-MEL-5 = tested on: SK-MEL-5
SN12C = tested on: SN12C
HT-29 = tested on: HT-29
TK-10 = tested on: TK-10
HCT-116 = tested on: HCT-116
NCI/ADR-RES = tested on: NCI/ADR-RES
OVCAR-8 = tested on: OVCAR-8
EKVX = tested on: EKVX
UO-31 = tested on: UO-31
A498 = tested on: A498
DU-145 = tested on: DU-145
SF-268 = tested on: SF-268
SK-OV-3 = tested on: SK-OV-3
Malme-3M = tested on: Malme-3M
CAKI-1 = tested on: CAKI-1
HCC 2998 = tested on: HCC 2998
BT-549 = tested on: BT-549
M14 = tested on: M14
LOX IMVI = tested on: LOX IMVI
CCRF-CEM = tested on: CCRF-CEM
NCI-H226 = tested on: NCI-H226
OVCAR-5 = tested on: OVCAR-5
UACC-62 = tested on: UACC-62
OVCAR-4 = tested on: OVCAR-4
U-251 = tested on: U-251
SNB-75 = tested on: SNB-75

COc1cc(O)c2c(=O)c(OC)c(-c3ccc(OC)c(O)c3)oc2c1 [AYANIN] was tested, and the GI50 (NCI-H23) was 69.5 µM (inactive), the GI50 (NCI-H522) was 29.1 µM (inactive) and the GI50 (ACHN) was 33.1 µM (inactive). The GI50 (786-0) was 12.5 µM (inactive), the GI50 (SK-MEL-28) was > 100 µM (inactive) and the GI50 (RPMI-8226) was 33.1 µM (inactive). The GI50 (HL-60) was > 100 µM (inactive), the GI50 (MOLT-4) was 42.7 µM (inactive) and the GI50 (IGROV-1) was 25.4 µM (inactive). For the same molecule, the GI50 (NCI-H460) was 14 µM (inactive), the GI50 (SNB-19) was > 100 µM (inactive) and the GI50 (SF-295) was 7.78 µM (inactive). For the same molecule, the GI50 (SR) was 22.1 µM (inactive), the GI50 (MDA-MB-231) was 14.8 µM (inactive) and the GI50 (PC-3) was 30.8 µM (inactive). For the same molecule, the GI50 (RXF 393) was 57.3 µM (inactive), the GI50 (K562) was 60.5 µM (inactive) and the GI50 (MCF7) was 15.5 µM (inactive). The GI50 (SF-539) was 18.4 µM (inactive), the GI50 (HCT-15) was 14.3 µM and the GI50 (SW-620) was > 100 µM (inactive). The GI50 (HOP-62) was 31.5 µM (inactive), the GI50 (UACC-257) was 85.7 µM (inactive) and the GI50 (Hs-578T) was 7.85 µM (inactive). For the same molecule, the GI50 (T47D) was 3.83 µM (inactive), the GI50 (COLO 205) was 76.9 µM (inactive) and the GI50 (OVCAR-3) was 63.8 µM (inactive). For the same molecule, the GI50 (MDA-N) was 73.1 µM (inactive), the GI50 (A549) was 76.6 µM (inactive) and the GI50 (SK-MEL-2) was > 100 µM (inactive). The GI50 (KM12) was 35.7 µM (inactive), the GI50 (MDA-MB-435) was 34.7 µM (inactive) and the GI50 (SK-MEL-5) was 20.4 µM (inactive). For the same molecule, the GI50 (SN12C) was 61.9 µM (inactive), the GI50 (HT-29) was 79.1 µM (inactive) and the GI50 (TK-10) was 17.6 µM (inactive). For the same molecule, the GI50 (HCT-116) was 32.1 µM (inactive), the GI50 (NCI/ADR-RES) was > 100 µM (inactive) and the GI50 (OVCAR-8) was 66.5 µM (inactive). For the same molecule, the GI50 (EKVX) was 62.5 µM (inactive), the GI50 (UO-31) was 28.9 µM (inactive) and the GI50 (A498) was 3.44 µM (inactive). The GI50 (DU-145) was 20 µM (inactive), the GI50 (SF-268) was 33.2 µM (inactive) and the GI50 (SK-OV-3) was 35.7 µM (inactive). The GI50 (Malme-3M) was 24 µM (inactive), the GI50 (CAKI-1) was 6.71 µM (inactive) and the GI50 (HCC 2998) was 28.2 µM (inactive). For the same molecule, the GI50 (BT-549) was 20.4 µM (inactive), the GI50 (M14) was 52.2 µM (inactive) and the GI50 (LOX IMVI) was 20.7 µM (inactive). The GI50 (CCRF-CEM) was 23.6 µM (inactive), the GI50 (NCI-H226) was > 100 µM (inactive) and the GI50 (OVCAR-5) was 37.4 µM (inactive). The GI50 (UACC-62) was 23.5 µM (inactive), the GI50 (OVCAR-4) was 22.1 µM (inactive) and the GI50 (U-251) was > 100 µM (inactive). The GI50 (SNB-75) was 6.14 µM (inactive).
